The values below come from patent publication US9884851B2, “Heterocycle-bisamide inhibitors of scavenger receptor BI” (THE BROAD INSTITUTE, INC., priority 2012, dated 2018).

Molecules are shown by their SMILES.

The target in series [1] is T1, SR-BI (Mus musculus, UniProt Q61009).
T1 sequence (Q61009 1-509): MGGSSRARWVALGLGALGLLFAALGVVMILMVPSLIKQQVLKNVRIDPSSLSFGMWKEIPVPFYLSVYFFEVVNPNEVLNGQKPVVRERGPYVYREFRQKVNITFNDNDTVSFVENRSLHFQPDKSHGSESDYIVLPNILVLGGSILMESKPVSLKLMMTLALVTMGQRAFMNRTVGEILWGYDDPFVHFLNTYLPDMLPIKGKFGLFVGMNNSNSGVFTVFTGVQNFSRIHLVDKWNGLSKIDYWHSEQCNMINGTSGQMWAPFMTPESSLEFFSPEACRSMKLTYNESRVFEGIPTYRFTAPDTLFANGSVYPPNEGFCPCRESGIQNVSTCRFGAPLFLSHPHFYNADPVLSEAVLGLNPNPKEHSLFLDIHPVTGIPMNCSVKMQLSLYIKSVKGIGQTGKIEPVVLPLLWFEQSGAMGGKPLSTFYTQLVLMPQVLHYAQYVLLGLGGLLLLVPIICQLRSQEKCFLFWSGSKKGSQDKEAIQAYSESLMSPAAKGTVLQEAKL
The series can be described thus: HDL binding assay (Alexa 488 HDL). Format: cell-based, murine. The arrangement: expressed in transfected cells; host or cells: ldlA[mSR-BI], Chinese hamster ovary (CHO) cells lacking LDL receptor (Krieger Laboratory). As to the method:
HDL binding was assessed using Alexa Fluor 488-labeled HDL particles. For this assay, the Alexa 488 dye was directly covalently bound to apolipoprotein components of the HDL particle via primary amines; thus, no transfer of the fluorophore to cell membranes occurs. Instead, direct binding of the HDL particles to SR-BI can be measured. As a positive control, BLT-1, which is known to increase binding, was used at 1 μM. It is possible that a compound can reduce binding of HDL to the receptor, and this would lead to a decrease in signal. This assay is used to characterize the mechanism of action of a particular compound; therefore, any outcome in the assay is acceptable. Data were normalized against DMSO and the positive control (1 μM BLT-1) in Genedata Assay Analyzer.

For series [2], the target named is T2, purified SR-BI (mSR-BI-t1) (Mus musculus, UniProt Q61009).
T2 construct: made in house; host or cells: HEK293S GnTI-defective cells, tetracycline-inducible promoter
T2 sequence (Q61009 1-509): T1 sequence (Q61009 1-509)
The series can be described thus: Lipid transport assay in liposomes. Format: biochemical, murine. The note with it: [3H]CE uptake into SR-BI liposomes.
Description: This assay provides confirmation of activity via SR-BI by measuring the uptake of [^3H]cholesteryl ester ([^3H]CE) into liposomes loaded with purified SR-BI. For the purification of C-terminally epitope-tagged murine SR-BI (mSR-BI-t1) with uniform, truncated N-linked oligosaccharide chains, we overexpressed mSR-BI-t1 in HEK293S cells. The mSR-BI-t1 was expressed in an N-acetylglucosaminyltransferase I (GnTI)-defective HEK293S derivative, HEK293S GnTI (2), which generates a glycoprotein with uniform, truncated N-linked oligosaccharide chains under the control of a tetracycline-inducible promoter. mSR-BI-t1 was immunoaffinity purified to virtual homogeneity, and the detergent-solubilized receptor was reconstituted into liposomes. Subsequently, the in vitro SR-BI-mediated selective uptake of [^3H]CE from [^3H]CE-HDL in the reconstituted liposomes was measured. […] Briefly, 20 μg of SR-BI (or an equivalent volume of protein-free buffer to generate control liposomes that are devoid of SR-BI) was reconstituted into liposomes by acetone precipitation. […] Incubation was continued for 4 hours at 37° C., and then selective uptake of [^3H]CE into liposomes was determined using the previously described filter binding assays (15). SR-BI-selective uptake values were determined.

The next series in a line: Stability in PBS. Conditions: 1% DMSO, over 48 hours. The format is physicochemical. As to the method: We noticed that the concentration of the probe fluctuated through the course of the assay (data not shown). We believe that this fluctuation is due to the low kinetic solubility of the probe. Thus, we decided to determine the amount of undissolved probe present in the well after it was treated with PBS for a given length of time, relative to the amount of undissolved probe at the start of the assay. The wells were centrifuged and the supernatant was removed after various time points, then acetonitrile was added to dissolve the remaining solid in the wells, and the amount of probe was quantified. […] The stability of the probe was confirmed by measuring stability in human plasma, with >99% remaining after a 5-hour incubation period. […] FIG. 5 summarizes known properties of the probe.

The next series concerns ldlA7 cells. The series can be described thus: DiI-HDL uptake assay in the absence of SR-BI (ldlA7 counterscreen). The format is cell-based, Chinese hamster. The note with it: Cricetulus griseus; parental cells not overexpressing SR-BI. As to the method:
DiI-HDL Uptake Assay in the Absence of SR-BI (SA 7: AID No. 588825)
In the primary assay, the cell line used to measure DiI-HDL uptake lacks the LDL receptor and overexpresses SR-BI. […] As in the primary assay, 10 μg protein/ml of DiI-HDL was used to measure DiI uptake into the cells after 3 hours of incubation with different concentrations of compound.
(In general: A counterscreen serves to expose hits that act by an unwanted route or on another target.)

The next series is described as follows: Plasma protein binding. Conditions: human plasma; read-out: plasma protein binding (PPB), bound (converted). Format: in vitro ADME.
Series [3] is described as follows: Cell cytotoxicity assay (CellTiter-Glo). Conditions: Chinese hamster, ldlA[mSR-BI] cells. As to the method:
It is possible that a compound will cause cells to decrease HDL-mediated DiI uptake due to nonspecific consequences of cellular toxicity, representing a second class of false positive hits. The cells were treated with compounds for 3 hours or 24 hours, and then cell viability was measured using the CellTiter-Glo Assay (Promega), a luciferase-based reagent that measures cellular ATP levels. The compounds were tested at different concentrations to determine IC50 values. […] Data were normalized against DMSO and the positive control (1 μM BLT-1) in Genedata Assay Analyzer.
All available dry powder samples of the remaining, non-quenching compounds were procured from commercial sources and purities were determined. The compounds obtained were then retested in the primary assay and in cytotoxicity assays. We wanted to rule out any compounds that were cytotoxic, especially in the 3-hour time span of the primary DiI-HDL uptake assay. Therefore, compounds were tested in ldl[mSR-BI] cells for cytotoxicity at 3 hours and 24 hours using the CellTiter-Glo assay (Promega) that measures cellular ATP as a marker of cell viability. […] Compounds were screened for inhibition of endocytosis using labeled transferrin, which is known to bind the transferrin receptor, enter cells by clathrin-mediated endocytosis, and move to endosomes before being recycled to the cell surface.
Background: Cellular ATP, detected with luciferase, serves as a proxy for viable cell number.

For series [4], the target named is T1, SR-BI. The series can be described thus: Radioactive HDL uptake assay (wild type SR-BI). The format is cell-based, murine. The arrangement: expressed in transfected cells; host or cells: ldlA[mSR-BI], Chinese hamster ovary (CHO) cells lacking LDL receptor (Krieger Laboratory). The note with it: [3H]cholesteryl ester HDL; read-out: IC50 in nonfluorescent, radiolabeled version of the uptake assay. The source says: Radioactive HDL Uptake Assay (Wild Type SR-BI) (SA 8: AID No. 588836)
The goal of this assay was to verify compounds that disrupt the lipid uptake from HDL particles to SR-BI scavenger receptor-expressing cells using an alternative means of labeling HDL-particles and avoiding any type of fluorescence measurement. To measure this binding event, HDL particles are labeled with [^3H]cholesteryl ester and added to mSR-BI expressing cells. Cells take up the radioactive lipids from HDL via SR-BI in 2 to 3 hours. After significant uptake of the lipids from HDL, the radiolabel can be detected by liquid scintillation counting. The level of radioactivity correlates with the amount of HDL lipid uptake. The uptake of lipid from the HDL particles can be inhibited by the compound BLT-1 or when co-treated with an excess of unlabeled HDL. The mSR-BI expressing cells utilized in the assay are a Chinese hamster ovary (CHO) cell line lacking expression of the LDL receptors and overexpressing the scavenger receptor, SR-BI. Inhibitors of SR-BI and HDL lipid uptake will have a reduction in liquid scintillation counts.

One may read the AC50 as the midpoint of the concentration-response curve, whichever way the signal moves. Low values mean activity at low concentration, high ones activity only at high concentration. Usually IC50 stands for the concentration needed to halve the response being measured. For orientation: EC50 means the concentration needed to bring the measured effect to its halfway point. High values mean weaker potency, low ones greater potency. `C[C@H](C(=O)NC1CCCC1)N(C(=O)Cn1nnc(-c2ccc3c(c2)OCO3)n1)C1CCCCC1` [ML279, (R)-2-(2-(5-(Benzo[d][1,3]dioxol-5-yl)-2H-tetrazol-2-yl)-N-cyclohexylacetamido)-N-cyclopentylpropanamide]: the half-maximal activity concentration (AC50) at SR-BI [1] (Alexa Fluor 488-labeled HDL) was found to be 0.27 µM. In addition, the “effect on binding of HDL to SR-BI (in words)” value on SR-BI [1] (Alexa-488 labeled HDL) is “increases binding of HDL to the receptor”. Also, the “interaction with SR-BI in purified liposomes (in words)” value in series [2] was “direct interaction between the probe and SR-BI”. Moreover, in the series “Stability in PBS”, the “stability in PBS (in words)” value is reported as “stable to PBS”. Moreover, the figures for the IC50 in the series with ldlA7 cells and at SR-BI [4] were above 35 µM and 1 µM, respectively. In addition, the fraction unbound in the series “Plasma protein binding” was 0.235. The compound further returned an EC50 at 24 h in series [3] above 35 µM. This compound showed an IC50 at 24 h in series [3] above 35 µM.
